Assay results taken from patent US20050100507A1, “Chemotactic peptide antagonists for imaging sites of inflammation” (Bracco Imaging S.p.A., priority 1998, published 2005).
Square brackets hold non-standard residues; d marks the D form. Ends that are not written are not given here. * marks the point of attachment. N,N‑diphenylcarbamoyl = O=C(N(c1ccccc1)c1ccccc1)*; Adamantane1carbonyl = O=C(C12CC3CC(CC(C3)C1)C2)*; N‑phenyl‑N‑methylcarbamoyl = CN(C(=O)*)c1ccccc1; Cyclopropanecarbonyl = O=C(C1CC1)*; Nle = CCCC[C@H](N)C(=O)O

Columns and labels:
Rat FPR = molecular target: T1, Rat FPR (Rattus norvegicus, UniProt D4A7Q2); experiment: Competition binding with 6 nM 3H-fMLF to elicited rat PMNs; conditions: for competition binding of N-terminal modified NleLFK peptides (FIG. 8): peptides at 1 uM and 10 uM
T1 construct: endogenous in cells; host or cells: glycogen-elicited peritoneal neutrophils (PMNs) of Sprague-Dawley rats
T1 sequence (D4A7Q2 1-355): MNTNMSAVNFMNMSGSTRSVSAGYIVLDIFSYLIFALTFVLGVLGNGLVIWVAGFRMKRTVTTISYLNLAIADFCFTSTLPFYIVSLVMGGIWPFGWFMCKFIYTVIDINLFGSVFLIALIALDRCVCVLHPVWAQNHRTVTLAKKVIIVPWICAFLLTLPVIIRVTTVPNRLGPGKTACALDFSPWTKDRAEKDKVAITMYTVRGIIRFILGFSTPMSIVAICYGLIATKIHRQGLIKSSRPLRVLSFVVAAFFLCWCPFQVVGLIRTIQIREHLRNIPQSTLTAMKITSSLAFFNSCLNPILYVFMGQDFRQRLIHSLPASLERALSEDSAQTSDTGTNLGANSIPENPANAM
Experimental: (§1) Animals were sacrificed via administration of CO2 4 hours following peritoneal injection of 10 mL of 0.5% (w/v) oyster glycogen warmed to room temperature. Leukocyte harvesting via peritoneal lavage was performed using 20 mL of Hanks' buffered salt solution (HBSS−) containing 10 mM ethylene-diaminetetra-acetic acid (EDTA) disodium salt followed by a second lavage with 10 mL of HBSS− containing 10 mM EDTA. Exactly the same technique was performed on all rats with washes of the peritoneum prior to aspiration of samples approximating 1 minute. The volume of fluid recovered from each rat was approximately 20-25 mL and bloody lavages visibly containing significant red blood cell (RBC) populations were discarded.
(§2) Neutrophils isolated by peritoneal lavage were washed twice with 1 mL of HBSS− (without calcium chloride, magnesium chloride and magnesium sulfate) and centrifuged for ten minutes at 2000 rpms following each wash. PMNs utilized in functional assays were centrifuged at 25° C. while those used in binding assays were centrifuged at 4° C. to prevent internalization. A cold H2O RBC lysis was then performed with the addition of 9 mL of sterile ice-cold H2O and 1 mL of phosphate buffered saline (PBS) solution containing 0.1 M phosphate buffer, 0.027 M KCl and 1.37 M NaCl following resuspension of the sample in 1 mL of HBSS. Centrifugation was subsequently performed for ten minutes at 1600 rpms. White blood cell (WBC) differential stain containing saline, 2% acidic acid and phenol violet dye was used to identify the neutrophil population and trypan blue exclusion was used to determine viability of cells. As previously reported, 98% of leukocytes were neutrophils and approximately 95% of the cells were viable (Chen et al., 1996).
Competition binding assays for N-terminal capping groups and Re-libraries were conducted with 6 nM ^3H-fMLP in addition to the unlabelled competing analogue added at 1.0 uM and 10 uM to each well. […] Total binding in the competition assays was assessed in the presence of 1.0×10^6 PMNs per sample while non-specific binding was determined in the absence of cells. Each condition was performed in quadruplicate. Total activity added to each sample was determined from cpms obtained from a sample containing 6 nM ^3H-fMLF. Data was expressed as specific binding in fmols and converted to percent of total ^3H-fMLF binding (% control).
After a 1 hour incubation period at 4° C., the samples were harvested with the Tomtec Mach III Cell Harvester by vacuum aspiration onto 1.5 um pore size Skatron glass-fibre filter mats pre-treated with 0.1% polyethylenimine (w/v) for approximately 24 hours. Sample wells received three consecutive 12 second washes with 0.9% saline solution and 5 mL of liquid scintillation fluid was added to collected filters. Filters were counted for 2 minutes in the Beckman β-counter following exposure to scintillation fluid for 15 hours. Data was expressed in terms of specific binding in fmols converted to percent of total ^3H-fMLF binding (% control).
(§3) The curve-fitting program Prism was used to calculate KD, IC50 and EC50 values by fitting data to the one-site binding equations A, B and C respectively. • A. Equation: One site binding (hyperbola) Y=Bmax*X/(KD+X) • B. Equation: One site competition Y=Bottom+(Top−Bottom)/(1+10^(X−LogIC50)); with x=log (concentration) and y=binding • C. […] Additionally, Graph fit software was used to perform Scatchard analysis of saturation binding data and to confirm KD and Bmax values generated by Prism software.

human neutrophils = experiment: Myeloperoxidase release from human neutrophils; type: cell-based; conditions: result in words; for inhibition of MPO release in fMLF-stimulated human neutrophils (FIG. 4): 10 uM compound, fMLF 10^−8 M and 10^−6 M, p<0.05; for stimulation of MPO release by the compound itself in human neutrophils: up to 10 uM compound, low fMLF (10^−14M, 10^−12M)
Experimental: Approximately 30 mL of venous blood was collected from healthy volunteers with 100 units of heparin per mL of blood. Samples were then mixed with 8 mL of 6% dextran solution and incubated at 37° C. for 1 hour for RBC sedimentation. Leukocyte-rich plasma was collected and centrifuged at 1500 rpm for 5 minutes. Cell pellets were resuspended in 35 mL of saline and 10 mL of lymphocyte separation medium was layered over prior to additional centrifugation at 1200 rpm for 30 minutes. Sedimented cells were washed once with 35 mL of saline and RBCs were lysed by resuspension in 1.8 mL of sterile H2O for 15 seconds. Isotonicity was restored with the addition of 0.2 mL of 10×HBSS− followed by the addition of 35 mL of saline. Centrifugation at 1500 rpm for 5 minutes was then performed. Following final washing of the PMN pellet with 35 mL of saline, cell viability was determined via trypan blue exclusion and cell number was determined.
(§4) 0.5×10^6 PMNs per sample were incubated in 96-well Millipore Multiscreen 0.65 um filter plates. In a final volume of 150 uL, 50 uL of the respective fMLP analogues (10 uM to 1 pM) and/or fMLP (10 uM to 1.0 uM) were incubated with isolated PMNs pre-treated with cytochalasin B (5 ug/mL) for 10 minutes. Following a 30 minute incubation period at room temperature, the supernatant was collected into a 96-well polypropylene plate with the Millipore vacuum apparatus. A stock solution of o-phenylenediamine (OPD) was made to contain 2.5 mg of OPD, 5 ul of H2O2 and 10 mL HBSS+ and supernatant samples were subsequently incubated with 50 uL of OPD solution. The reaction was stopped after 2 minutes by the addition of 2.5M H2SO4. Photometric analysis was performed with the Thermomax Microplate Reader with optical density (O.D.490) values being read at a wavelength of 490 nm. Absorbance was measured against a blank containing 150 μl of HBSS+ which was subtracted from wells containing cells and the various treatments. MPO release was expressed as a percentage of the total release of myeloperoxidase in control wells containing cells ±fMLF.

elicited rat PMNs [1] = type: cell-based; conditions: MPO release, PMNs without fMLF, ± S.E.M.; for % Control (1 uM): test peptide 1 uM; for % Control (10 uM): test peptide 10 uM
Experimental: as §1, §2, §4, §3

elicited rat PMNs [2] = experiment: Myeloperoxidase release in elicited rat PMNs co-stimulated with 0.1 uM fMLF; type: cell-based; conditions: for antagonist function on MPO release in fMLF stimulated rat PMNs: 0.1 uM fMLF, inhibition at 10 uM, result in words; for % Control MPO release (1 uM capping group + 0.1 uM fMLF): 1 uM test peptide + 0.1 uM fMLF; for % Control MPO release (1 uM capping group + 0.1 uM fMLF) / % Control MPO Release (10 uM capping group + 0.1 uM fMLF): ± S.E.M.; for % Control MPO Release (10 uM capping group + 0.1 uM fMLF): 10 uM test peptide + 0.1 uM fMLF
Experimental: as §1, §2
as §4, with “In a final volume of 150 uL, 50 uL of the respective fMLP analogues (10 uM to 1 pM) and/or fMLP (10 uM to 1.0 uM) were incubated with isolated PMNs pre-treated with cytochalasin B (5 ug/mL) for 10 minutes.” left out

Compound	IC50 (Rat FPR; elicited rat PMNs, 6 nM 3H-fMLF, 4° C. 1 hour, brackets = 95% confidence interval, read-out: Receptor Binding (IC50))	% Control MPO release (1 uM capping group + 0.1 uM fMLF) (elicited rat PMNs [2])	% Control MPO Release (10 uM capping group + 0.1 uM fMLF) (elicited rat PMNs [2])	binding affinity, fold greater than N-t-BocMLF (Rat FPR; from rat FPR IC50 values)	inhibition of MPO release in fMLF-stimulated human neutrophils (FIG. 4) (human neutrophils)	stimulation of MPO release by the compound itself in human neutrophils (human neutrophils)	competition binding of N-terminal modified NleLFK peptides (FIG. 8) (Rat FPR; 6 nM 3H-fMLF, result in words)	% Control (1 uM) (elicited rat PMNs [1])	% Control (10 uM) (elicited rat PMNs [1])	antagonist function on MPO release in fMLF stimulated rat PMNs (elicited rat PMNs [2])	inhibition of 3H-fMLF binding at 10 uM compared with iso-BocMLFK (FIG. 8) (Rat FPR; peptide 10 uM, 6 nM 3H-fMLF, result in words)
Capping Group 18: N,N-diphenylcarbamoyl N-terminal capping group attached to peptide NleLFK ({N,N‑diphenylcarbamoyl}-[Nle]LFK)		321.6 ± 8.6 % control	185.9 ± 15.7 % control				do not nullify binding affinity	142.7 ± 8.8 % control	125.2 ± 1.5 % control		inhibited ^3H-fMLF binding to a degree comparable with known antagonist iso-BocMLFK
Capping Group 13: Adamantylcarbonyl N-terminal capping group attached to peptide NleLFK (Adamantane1carbonyl-[Nle]LFK)		131.6 ± 30.9 % control	128.6 ± 40.9 % control				did not significantly decrease the amount of ^3H-fMLF binding	70.5 ± 14.9 % control	71.7 ± 11.2 % control	exhibited antagonist function in fMLF stimulated cells	

The next lines start with results.

IC50 (Rat FPR; elicited rat PMNs, 6 nM 3H-fMLF, 4° C. 1 hour, brackets = 95% confidence interval, read-out: Receptor Binding (IC50))	% Control MPO release (1 uM capping group + 0.1 uM fMLF) (elicited rat PMNs [2])	% Control MPO Release (10 uM capping group + 0.1 uM fMLF) (elicited rat PMNs [2])	binding affinity, fold greater than N-t-BocMLF (Rat FPR; from rat FPR IC50 values)	Compound	inhibition of MPO release in fMLF-stimulated human neutrophils (FIG. 4) (human neutrophils)	stimulation of MPO release by the compound itself in human neutrophils (human neutrophils)	competition binding of N-terminal modified NleLFK peptides (FIG. 8) (Rat FPR; 6 nM 3H-fMLF, result in words)	% Control (1 uM) (elicited rat PMNs [1])	% Control (10 uM) (elicited rat PMNs [1])	antagonist function on MPO release in fMLF stimulated rat PMNs (elicited rat PMNs [2])	inhibition of 3H-fMLF binding at 10 uM compared with iso-BocMLFK (FIG. 8) (Rat FPR; peptide 10 uM, 6 nM 3H-fMLF, result in words)
9.3 µM				CSCC[C@H](NC(=O)OC(C)(C)C)C(=O)N[C@@H](CC(C)C)C(=O)N[C@@H](Cc1ccccc1)C(=O)O [N-t-BocMLF, N-tert-butyloxycarbonylated-methionyl-leucyl-phenylalanine, reference compound]	inhibited MPO release from fMLF stimulated cells	did not induce release					
	171.2 ± 6.3 % control	121.3 ± 23.9 % control		Capping Group 10: N-phenyl-N-methylcarbamoyl N-terminal capping group attached to peptide NleLFK ({N‑phenyl‑N‑methylcarbamoyl}-[Nle]LFK)			did not significantly decrease the amount of ^3H-fMLF binding	94.7 ± 20.4 % control	68.0 ± 17.4 % control	exhibited antagonist function in fMLF stimulated cells	
			approximately 12 fold	ReO-CyclopropylCONH-nleu-leu-phe-trp-glu-lys(dimethylgly-t-butylgly-cys-gly)-gly-OH (Cyclopropanecarbonyl-[Nle]LFWEKG-OH; not fully specified (residue 6); printed as ReO-CyclopropylCONH-nleu-leu-phe-trp-glu-lys(dimethylgly-t-butylgly-cys-gly)-gly-OH; also: ReO chelate on Lys side chain) [ReORP553 17-01]	significantly inhibited the release of MPO	did not stimulate MPO release					
